Test results reported in patent publication US5354767A, “Renin inhibiting polyhydroxy-monoamides” (Bio-Mega, Inc., priority 1991, dated 1994).
pIC50: −log10 of the molar value.

These molecules were tested against T1, human renin (Homo sapiens, UniProt P00797) (assay: Plasma renin assay (angiotensin I generated in human plasma pool, RIA)). Details: human plasma pool as source of renin and angiotensinogen; pH 6.0; 2 h at 37°; 1% dimethylsulfoxide.
T1 construct: A human plasma pool is used as the source of both the substrate (angiotensinogen) and the enzyme (renin); from tissue; host or cells: human plasma pool
T1 sequence (P00797 67-406): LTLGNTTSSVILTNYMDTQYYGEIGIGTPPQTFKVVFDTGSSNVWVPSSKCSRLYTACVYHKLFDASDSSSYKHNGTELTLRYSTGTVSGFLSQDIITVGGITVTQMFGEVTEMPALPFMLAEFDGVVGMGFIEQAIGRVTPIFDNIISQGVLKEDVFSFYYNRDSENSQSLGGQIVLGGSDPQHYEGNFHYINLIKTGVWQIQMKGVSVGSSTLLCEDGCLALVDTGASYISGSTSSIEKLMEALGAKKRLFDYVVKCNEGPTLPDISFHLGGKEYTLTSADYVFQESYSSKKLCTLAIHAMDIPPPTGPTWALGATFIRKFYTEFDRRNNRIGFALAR
Type: biochemical
Description: The assay is performed as follows: The test compound (i.e. the inhibitor) is dissolved in dimethylsulfoxide(1mM stock solution) and diluted with an aqueous buffer solution of 270 mM 2-(N-morpholino)ethanesulfonic acid and 1% human serum albumin (pH 5.85, also containing dimercaprol and 8-hydroxyquinoline sulfate in accordance with the instructions of the RIA kit noted below) to give an assay mixture in which the final dimethylsulfoxide content is 1% (v/v).
A human plasma pool is used as the source of both the substrate (angiotensinogen) and the enzyme (renin). The reaction is initiated by the addition of 50 μL of human plasma pool to 50 μL of various concentrations of inhibitor in the 1% dimethylsulfoxide assay buffer. The plasma renin activity is measured by the amount of angiotensin I generated at pH 6.0 following a 2 h incubation at 37°.
Quantitation of angiotensin I is performed by radioinununoassay (RIA kit from New England Nuclear-Dupont, Mississauga, ON, Canada). The enzymatic activity of renin is expressed in ng of angiotensin I generated/mL/2 h. The extent of inhibition of the reaction is determined from the amount of angiotensin I generated in reference to a control prepared without inhibitor. Nonlinear regression analysis is used to calculate the IC50 values, i.e. the molar concentration of the test compound required to cause a 50% inhibition of the enzyme activity.
The following table exemplifies results obtained for compounds of formula 1.

Row | SMILES | pIC50
1 | CC(C)C[C@H](O)[C@H](O)[C@H](CC1CCCCC1)NC(=O)[C@H](CC1CC1)C[C@H](O)[C@@H](O)Cc1ccccc1 [Title compound of example 2, (2R, 4S, 5S)-N-[1(S)-(Cyclohexylmethyl)-2(R), 3(S)-dihydroxy-5-methylhexyl]-2-(cyclopropylmethyl)-4,5-dihydroxy-6-phenylhexanamide] | 7.66
2 | CC(C)C[C@H](O)[C@H](O)[C@H](CC1CCCCC1)NC(=O)[C@H](CC1CC1)C[C@H](O)[C@H](O)Cc1ccccc1 [Title compound of example 4, (2R, 4S , 5R)-N-[1(S)-(Cyclohexylmethyl)-2(R), 3(S)-dihydroxy-5methylhexyl]-2-(cyclopropylmethyl)-4,5-dihydroxy-6-phenylhexanamide] | 6.96
3 | CC(C)C[C@H](O)[C@H](O)[C@H](CC1CCCCC1)NC(=O)[C@H](CC1CC1)[C@@H](O)C[C@H](O)Cc1ccccc1 [Title compound of example 10, (2R,3S,5R)-N-[1(S)-(Cyclohexylmethyl)-2(R), 3(S)-dihydroxy-5-methylhexyl]-2-(cyclopropylmethyl)-3,5-dihydroxy-6-phenylhexanamide] | 7.68
4 | CC(C)C[C@H](O)[C@H](O)[C@H](CC1CCCCC1)NC(=O)[C@H](CC1CC1)[C@H](O)C[C@H](O)Cc1ccccc1 [Title compound of example 11, (2R,3R,5R)-N-[1(S)-(Cyclohexylmethyl)-2(R),3(S)-dihydroxy-5-methylhexyl]-2-(cyclopropylmethyl)-3,5-dihydroxy-6-phenylhexanamide] | 6.59
5 | CC(C)C[C@H](O)[C@H](O)[C@H](CC1CCCCC1)NC(=O)[C@H](CC1CC1)C[C@@H](O)[C@H](O)Cc1ccccc1 [Corresponding (2R,4R,5R)-isomer of title compound of example 2] | 7.42
6 | CC(C)C[C@H](O)[C@H](O)[C@H](CC1CCCCC1)NC(=O)[C@H](CC1CC1)[C@H](O)C[C@@H](O)Cc1ccccc1 [Title compound of example 12, (2R, 3R, 5S)-N-[1(S)-(Cyclohexylmethyl)-2(R), 3(S)-dihydroxy-5-methylhexyl]-2-(cyclopropylmethyl)-3,5-dihydroxy-6-phenylhexanamide] | 6.00
7 | CC(C)C[C@H](O)[C@H](O)[C@H](CC1CCCCC1)NC(=O)[C@H](CC1CC1)[C@@H](O)C[C@@H](O)Cc1ccccc1 [Title compound of example 13] | 6.76
8 | CC(C)C[C@H](O)[C@H](O)[C@H](CC1CCCCC1)NC(=O)[C@H](CC1CC1)C[C@@H](O)[C@@H](O)Cc1ccccc1 [Title compound of example 5, (2R, 4R, 5S)-N-[1(S)-(Cyclohexylmethyl)-2(R), 3(S)-dihydroxy-5-methylhexyl]-2-(cyclopropylmethyl)-4,5-dihydroxy-6-phenylhexanamide] | 7.32

Same assay, conditions: values in parentheses in the list of other examples; assay not restated there

Row | SMILES | pIC50
9 | CC(C)C[C@H](O)[C@H](O)[C@H](CC1CCCCC1)NC(=O)[C@H](Cc1cccs1)C[C@H](O)[C@@H](O)Cc1ccccc1 | 6.31
10 | Cc1nc(C[C@H](C[C@H](O)[C@@H](O)Cc2ccccc2)C(=O)N[C@@H](CC2CCCCC2)[C@@H](O)[C@@H](O)CC(C)C)cs1 | 6.66
11 | CC(C)C[C@H](O)[C@H](O)[C@H](CC1CCCCC1)NC(=O)[C@H](Cc1cnc[nH]1)C[C@@H](O)[C@H](O)Cc1ccccc1 | 6.76
